# From ChEMBL document CHEMBL1201862, “PubChem BioAssay data set” (2004)
# Activity calls are given as the source filed them.
# Tests used:
# [1] = molecular target: Mitogen-activated protein kinase 10 (Homo sapiens, UniProt P53779); assay: Dose response biochemical screening assay for inhibitors of c-Jun N-Terminal Kinase 3 (JNK3). [Related pubchem assays: 746 ]
# Interleukin-8 = molecular target: T1, Interleukin-8 (Homo sapiens, UniProt P10145); assay: Dose Response confirmation of uHTS small molecule hits for cystic fibrosis induced NFkb Inhibitors in a PAF-induced IL8 counterscreen.; assay type: functional; conditions: read-out: IC50_Mean
# T1 sequence (P10145 whole entry): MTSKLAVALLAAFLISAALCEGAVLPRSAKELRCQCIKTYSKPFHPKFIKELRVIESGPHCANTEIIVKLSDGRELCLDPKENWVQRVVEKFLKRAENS
# [2] = Shn3 3'UTR reporter inhibitors, dose response, cell-based, Clone20 osteoblasts, firefly luciferase, cherry-picked (AID 624132); assay type: functional;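 further: firefly luciferase luminescence from reporter carrying the Shn3 3'UTR in osteoblasts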
# [3] = HepG2 cell cytotoxicity, dose response, cytotoxicity control for Shn3 inhibitor project, CellTiter-Glo, cherry-picked (AID 624134); assay type: functional, cell-based
# [4] = control 3'UTR Renilla luciferase suppression, dose response, counter-screen for Shn3 inhibitor project, cell-based, Clone20-Shn3RL, cherry-picked (AID 624133); assay type: functional
# Protein Wnt-3a = Protein Wnt-3a (Mus musculus, UniProt P27467); assay: Wnt3a-driven reporter signaling inhibition, dose response, selectivity assay for Gli-SUFU antagonist project, Wnt-LIGHT cells, luminescence (AID 651570); assay type: functional; conditions: read-out: IC50_Mean;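 further: Wnt-LIGHT reporter cells stimulated with conditioned medium from Wnt3a-producing cells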
# Protein Wnt-3a, sequence (P27467 whole entry, the tested form may be a part): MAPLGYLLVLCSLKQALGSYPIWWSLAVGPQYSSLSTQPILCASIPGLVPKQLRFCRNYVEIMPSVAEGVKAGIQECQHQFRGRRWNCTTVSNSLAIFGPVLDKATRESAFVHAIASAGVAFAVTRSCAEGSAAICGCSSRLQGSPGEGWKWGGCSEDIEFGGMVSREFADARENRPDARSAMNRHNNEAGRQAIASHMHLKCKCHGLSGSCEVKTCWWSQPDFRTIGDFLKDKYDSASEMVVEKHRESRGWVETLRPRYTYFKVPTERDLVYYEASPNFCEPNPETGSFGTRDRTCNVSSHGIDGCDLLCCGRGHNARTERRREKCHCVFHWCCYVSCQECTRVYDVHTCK
# [5] = inhibitors of HIV Env-driven cell fusion, dose response, cherry-pick (AID 652057); assay type: functional, cell-based
# [6] = off-target signal loss in HeLa-CEM21 co-culture – HeLa F-luc CTL cells, cherry-picked, counter-screen for HIV-1 Env fusion inhibitor project, dose response (AID 652040); assay type: functional, cell-based;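 further: potency for signal decrease marking cytotoxic or nonspecific inhibition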
# [7] = inhibitors of clade B AD8 Env fusion, dose response, cell-based, cherry-pick (AID 652062); assay type: functional;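 further: luciferase signal from cell-cell fusion driven by HIV-1 clade B AD8 Env; potency is for inhibitors of fusion seen as a drop in luminescence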
# [8] = molecular target: T2, Aryl hydrocarbon receptor (Homo sapiens, UniProt P35869); conditions: Potency;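 further: confirmatory quantitative high-throughput screen measuring activation of the AhR signaling pathway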
# T2 sequence (P35869 whole entry): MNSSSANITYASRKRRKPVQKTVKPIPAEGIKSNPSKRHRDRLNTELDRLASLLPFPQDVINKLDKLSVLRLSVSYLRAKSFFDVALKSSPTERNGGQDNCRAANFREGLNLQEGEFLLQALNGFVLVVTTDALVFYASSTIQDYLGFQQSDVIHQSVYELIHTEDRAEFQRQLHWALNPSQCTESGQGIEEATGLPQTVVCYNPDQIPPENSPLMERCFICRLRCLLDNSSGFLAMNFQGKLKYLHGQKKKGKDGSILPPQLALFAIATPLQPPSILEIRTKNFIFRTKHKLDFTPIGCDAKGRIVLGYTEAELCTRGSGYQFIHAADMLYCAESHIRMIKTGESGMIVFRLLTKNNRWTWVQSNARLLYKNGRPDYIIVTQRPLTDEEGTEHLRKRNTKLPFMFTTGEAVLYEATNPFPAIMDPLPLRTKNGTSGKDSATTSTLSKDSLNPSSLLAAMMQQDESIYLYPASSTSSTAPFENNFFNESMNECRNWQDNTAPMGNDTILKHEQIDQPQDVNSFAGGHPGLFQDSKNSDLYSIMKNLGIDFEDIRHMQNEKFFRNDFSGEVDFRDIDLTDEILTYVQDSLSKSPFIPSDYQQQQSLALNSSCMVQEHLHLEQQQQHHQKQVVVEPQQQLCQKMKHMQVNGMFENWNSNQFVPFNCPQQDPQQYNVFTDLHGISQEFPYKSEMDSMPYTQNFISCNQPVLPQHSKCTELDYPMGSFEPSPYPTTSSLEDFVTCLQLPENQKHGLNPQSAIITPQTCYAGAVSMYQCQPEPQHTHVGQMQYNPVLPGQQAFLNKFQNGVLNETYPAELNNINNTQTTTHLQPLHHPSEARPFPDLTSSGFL
# CHO-K1 = assay: (§1) Counterscreen for antagonists of the orexin 1 receptor (OX1R; HCRTR1): Homogeneous time resolved fluorescence (HTRF)-based cell-based dose response assay to identify antagonists of the parental CHO-K1 cell line. [Related pubchem assays (depositor defined):AID434989, AID435008, AID463079, AID485270, AID492963, AID492964, AID492965, AID493232, AID504699, AID504701]; assay type: functional; conditions: Cricetulus griseus
# [9] = as §1, with “Fluorescence-based” for “Homogeneous time resolved fluorescence (HTRF)-based”, “cell-based high throughput” for “cell-based”, “CHO” for “CHO-K1”; assay type: functional
# [10] = molecular target: T3, Orexin/Hypocretin receptor type 1 (Homo sapiens, UniProt O43613); assay: Homogeneous Time Resolved Fluorescence (HTRF)-based cell-based high throughput dose response assay for antagonists of the orexin 1 receptor (OX1R; HCRTR1). [Related pubchem assays (depositor defined):AID434989, AID435008, AID463079, AID485270, AID492963, AID492964, AID492965, AID493232, AID504717, AID504718]; assay type: functional
# T3 sequence (O43613 whole entry): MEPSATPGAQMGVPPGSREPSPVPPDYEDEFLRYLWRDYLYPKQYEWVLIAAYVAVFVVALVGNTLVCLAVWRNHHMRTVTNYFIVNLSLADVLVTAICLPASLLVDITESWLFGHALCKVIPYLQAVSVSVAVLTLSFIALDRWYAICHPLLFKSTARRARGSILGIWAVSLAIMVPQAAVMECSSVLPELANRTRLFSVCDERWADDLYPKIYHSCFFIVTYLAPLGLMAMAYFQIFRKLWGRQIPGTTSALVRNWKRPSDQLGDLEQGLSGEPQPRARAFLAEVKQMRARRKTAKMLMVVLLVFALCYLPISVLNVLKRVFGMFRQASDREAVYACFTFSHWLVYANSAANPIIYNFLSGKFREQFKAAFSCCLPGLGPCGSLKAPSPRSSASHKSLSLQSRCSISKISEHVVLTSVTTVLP
# [11] = molecular target: T3, Orexin/Hypocretin receptor type 1; assay: Fluorescence-based cell-based high throughput dose response assay for antagonists of the orexin 1 receptor (OX1R; HCRTR1). [Related pubchem assays (depositor defined):AID434989, AID435008, AID463079, AID485270, AID492963, AID492964, AID492965, AID493232, AID504717, AID504718]; assay type: functional
# Orexin receptor type 2 [12] = molecular target: T4, Orexin receptor type 2 (Homo sapiens, UniProt O43614); assay: Counterscreen assay for antagonists of the orexin 1 receptor (OX1R; HCRTR1): Fluorescence-based cell-based dose response assay for antagonists of the orexin 2 receptor (OX2R; HCRTR2), run by assay provider.; assay type: functional
# T4 sequence (O43614 whole entry): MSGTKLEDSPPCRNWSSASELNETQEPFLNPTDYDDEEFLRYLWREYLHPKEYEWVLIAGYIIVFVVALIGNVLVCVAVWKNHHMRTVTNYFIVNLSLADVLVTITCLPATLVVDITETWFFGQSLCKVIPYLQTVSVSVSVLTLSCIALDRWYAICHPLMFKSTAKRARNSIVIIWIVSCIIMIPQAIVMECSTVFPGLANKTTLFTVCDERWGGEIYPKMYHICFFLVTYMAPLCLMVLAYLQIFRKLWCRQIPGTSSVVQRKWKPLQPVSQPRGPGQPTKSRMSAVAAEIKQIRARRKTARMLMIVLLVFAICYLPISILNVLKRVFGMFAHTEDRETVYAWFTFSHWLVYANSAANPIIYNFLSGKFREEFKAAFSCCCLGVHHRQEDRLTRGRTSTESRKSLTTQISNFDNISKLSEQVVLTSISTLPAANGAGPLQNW
# Orexin receptor type 2 [13] = molecular target: T4, Orexin receptor type 2; assay: Counterscreen assay for antagonists of the orexin 1 receptor (OX1R; HCRTR1): Homogeneous Time Resolved Fluorescence (HTRF)-based cell-based dose response assay for antagonists of the orexin 2 receptor (OX2R; HCRTR2), run by assay provider.; assay type: functional
# [14] = molecular target: Long-chain-fatty-acid--AMP ligase FadD28 (Mycobacterium tuberculosis, UniProt P9WQ59); assay: Fluorescence polarization aasay to screen for inhibitors that compete for the binding of FadD28 to a bisubstrate Measured in Biochemical System Using Plate Reader - 2147-01_Inhibitor_Dose_CherryPick_Activity.; assay type: functional, Mycobacterium tuberculosis H37Rv
# Long-chain-fatty-acid--AMP ligase FadD28, sequence (P9WQ59 whole entry): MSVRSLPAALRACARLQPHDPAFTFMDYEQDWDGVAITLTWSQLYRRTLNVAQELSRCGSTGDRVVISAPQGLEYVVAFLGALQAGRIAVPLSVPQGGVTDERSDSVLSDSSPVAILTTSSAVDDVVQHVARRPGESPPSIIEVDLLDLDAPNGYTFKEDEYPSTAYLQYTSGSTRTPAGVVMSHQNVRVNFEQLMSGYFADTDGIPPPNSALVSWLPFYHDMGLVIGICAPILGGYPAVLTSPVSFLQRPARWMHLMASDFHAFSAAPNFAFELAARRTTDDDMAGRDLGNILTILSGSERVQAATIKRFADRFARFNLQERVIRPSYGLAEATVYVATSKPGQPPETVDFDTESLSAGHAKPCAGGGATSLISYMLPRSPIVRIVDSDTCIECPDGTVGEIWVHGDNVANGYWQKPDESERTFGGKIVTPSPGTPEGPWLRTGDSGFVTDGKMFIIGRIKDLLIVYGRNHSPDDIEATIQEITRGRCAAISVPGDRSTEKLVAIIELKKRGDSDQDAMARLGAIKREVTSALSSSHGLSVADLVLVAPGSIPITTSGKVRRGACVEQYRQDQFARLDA
# Mitogen-activated protein kinase 10, sequence (P53779 whole entry): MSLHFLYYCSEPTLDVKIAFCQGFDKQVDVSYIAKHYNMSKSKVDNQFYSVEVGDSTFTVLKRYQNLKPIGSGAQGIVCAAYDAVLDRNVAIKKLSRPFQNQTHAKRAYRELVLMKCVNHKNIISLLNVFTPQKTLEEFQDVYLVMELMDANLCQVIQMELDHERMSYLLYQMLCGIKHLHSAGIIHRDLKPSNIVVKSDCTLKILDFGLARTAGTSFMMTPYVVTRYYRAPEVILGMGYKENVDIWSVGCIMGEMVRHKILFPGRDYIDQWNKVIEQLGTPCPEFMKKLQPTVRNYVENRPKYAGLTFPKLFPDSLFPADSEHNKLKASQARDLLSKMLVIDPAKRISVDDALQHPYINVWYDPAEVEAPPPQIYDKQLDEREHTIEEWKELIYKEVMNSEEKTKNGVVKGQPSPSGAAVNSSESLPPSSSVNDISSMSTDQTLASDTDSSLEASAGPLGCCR
structure (smiles),measurement,setting,value
COc1ccc(-c2cnc(N)nc2-c2ccc(OC)cc2O)cc1,IC50,[1],19.9 µM (not active)
same,IC50,Interleukin-8,14.6 µM (inactive)
CCC(C)NS(=O)(=O)c1ccc(S(=O)(=O)N2CCCC3(CCCCC3)C2)cc1 (stereo not drawn),AC50,[2],3.44 µM (active)
same,AC50,[3],6.54 µM (active)
same,AC50,[4],5.9 µM (active)
same,IC50,Protein Wnt-3a,5.16 µM (active)
same,AC50,[5],21.4 µM (active)
same,AC50,[6],58.9 µM (active)
same,AC50,[7],11.7 µM (active)
Cc1ccc2c(c1[N+](=O)[O-])C(=O)c1ccccc1C2=O,AC50,[8],17.8 µM (inconclusive)
Cc1ccc2nc(Nc3ccccc3)c(/C=N/O)c(=O)n2c1,IC50,CHO-K1,> 66.3 µM (inactive)
same,IC50,[9],> 49.8 µM (inactive)
same,IC50,[10],5.11 µM (active)
same,IC50,[11],9.96 µM (active)
same,IC50,Orexin receptor type 2 [12],32.5 µM (inactive)
same,IC50,Orexin receptor type 2 [13],> 50 µM (inactive)
CC1=C(C(=O)Nc2ccccc2)SCCO1 [CARBOXIN],AC50,[8],50.1 µM (inconclusive)
COc1ccc(CN2CCC(C(=O)Nc3ccc(Oc4cccnc4)cc3)CC2)cc1,AC50,[14],> 100 µM (inactive)
